{
  "source": "patent US7709004B2",
  "about": "“Method of producing an HIV-1 immune response” (Bionor Immuno AS, priority 1999, dated 2010)",
  "tested_on": "NMFI female mice",
  "experiment": "toxicity of the dipeptide by injection to mice",
  "type": "in vivo",
  "conditions": "100 μg per kg bodyweight, test solution 4 mg/ml in 0.9% NaCl",
  "procedure": "The dipeptide of Example 13 was diluted in 0.9% NaCl) to a test solution concentration of 4 mg/ml. The peptide was administered by injection to NMFI female mice in a dose of 100 μg per kg bodyweight.",
  "note": "Bridge positions count the residues as written; N and C are the ends. Ends that are not written are not given here. I, II: the chains in the order shown.",
  "data": [
    {"substance": "I: WIIPGLNPLVGGGKLYSPTSILCG-NH2 / II: KALGPGATLQTPWTACQGVG-NH2 (disulfide I:23-II:16) [Example 13]", "values": [
      {"measurement": "toxicological effects", "result": "No toxicological effects were observed"}
    ]}
  ]
}
